From patent US20220288091A1, “Method for Improving Insulin Sensitivity” (priority 2019, published 2022)
Values joined by “and” are separate entries in the source; they are usually repeats but may differ in a detail not shown here. Equal entries are not always repeated.

How the values were obtained:
Format in all cases: in vivo, human
[1] = test system: hypothalamic-pituitary-adrenal axis; experiment: 24-hour profile of ACTH and cortisol
Procedure: (§1) To reduce potential variability associated with estrogen in premenopausal women, testing was performed in the early follicular phase (days 1-7 of menstrual cycle). Baseline height and weight were measured after an overnight fast. Subjects received an isocaloric regular diet during the inpatient part of the study, and those on metformin took the same dose throughout the study. Baseline testing took place took place over three inpatient days at the NIH Clinical Center, during which fasting blood was drawn, 24-hour urine was collected, 24-hour serial blood draws were obtained, and patients received both a […] (FSIVGTT) and a 75-g oral glucose tolerance test (OGTT). Subjects were then randomized to receive placebo or mifepristone for 9 days, of which the first 6 days the subjects returned home, and the final 3 days subjects underwent the same metabolic testing as during the baseline period. Subjects randomized to the mifepristone treatment arm were instructed to take one capsule (50 mg) every 6 hours (200 mg/day) over the course of 9 days. The placebo treatment arm received the same instructions to take one capsule every 6 hours over the course of the 9-day treatment period. Following the completion of the post-drug testing, subjects entered a 6-8 week washout period, after which they were crossed over to the other treatment arm, serving as their own controls for the study drug treatments.
Data shown are mean±SEM with p values provided for the effects of treatment group, time, and the treatment-time interaction, which was obtained with repeated-measures ANOVA with post-hoc Bonferroni's test. Tukey box and whisker plots show ACTH (B) and cortisol (D) area under the curve for the 24-hour period. Top and bottom box limits represent the 75th and 25th percentile, respectively; midlines represent the median, and top and bottom whiskers represent the 75th percentile plus 1.5 of the interquartile range (IQR) and the 25th percentile minus 1.5 IQR, respectively. Post-treatment values were adjusted for baseline and treatment group using mixed-model regression. P values indicate significance for comparisons between mifepristone and placebo.

[2] = test system: overweight or obese subjects with prediabetes or mild type 2 diabetes; experiment: Fasting plasma glucose, insulin and fasting surrogate indices (HOMA-IR, QUICKI, Adipo-IR) in placebo-controlled crossover trial; details: 50 mg every 6 hours for 9 days, n=16
Procedure: A randomized, placebo-controlled, double-blind crossover trial was conducted to evaluate the use of an anti-glucocorticoid as a means for ameliorating insulin resistance. Mifepristone, 50 mg, or a placebo, was administered every six hours for nine days to sixteen overweight or obese (BMI 25-37 kg/m^2) subjects (seven women). Participant ages ranged from 48 to 64 years. Ten had prediabetes and six had mild diabetes type II (HgbA1c less than 7%). Treatment of the glucose disorder with diet or a stable dose of metformin (used by two patients) was maintained for three (3) months before the study. The interventions were nine days of mifepristone or placebo treatment followed by a six (6) to eight (8) week wash out and cross over to the other arm. At baseline and at the end of each treatment period, parameters of insulin sensitivity were assessed by a frequently sampled intravenous glucose tolerance test (FSIVGTT) and an oral glucose tolerance test (OGTT). A whole body glucose disposal index of insulin sensitivity (SI) was derived using a minimal model analysis. Adipose tissue-SI, which reflects insulin-induced free fatty acid suppression, was estimated by the log-linear slope of free fatty acid levels and the AUC of insulin during the FSIVGTT. Matsuda index, oral glucose insulin sensitivity index (OGIS, ml/min/m^2), and hepatic insulin resistance index (HIRI, mg/dl×microU/ml×10^5) were derived from OGTT. Adipo-IR, a surrogate measure of adipocyte insulin resistance, was calculated by multiplying fasting concentrations of free fatty acids and insulin (mmol×pmol/L). Comparison of various post-treatment parameters was performed using crossover ANOVA. This analysis takes into account specific treatment arm, treatment order, and treatment effects. Thus, carryover effects were explicitly tested for in the crossover study.
The inventors conducted a random, triple-blinded, placebo-controlled, cross-over study using mifepristone (50 mg every 6 hours, 200 mg total daily dose) in overweight/obese individuals (n=16, 44% female) with pre-DM (pre-diabetes mellitus) or mild type 2 diabetes mellitus (glycated hemoglobin A1C […]). Mifepristone or placebo was administered for 9 days followed by a washout period of 6 to 8 weeks, and then crossover to the other treatment arm. At baseline and after each treatment period, the oral glucose tolerance test and frequently sampled intravenous glucose tolerance test were performed. Insulin sensitivity (SI) was measured using Matsuda index and oral glucose insulin sensitivity index (OGISI). Hepatic SI was assessed using hepatic insulin resistance index (HIRI), and adipose tissue SI was assessed using adipo-IR adipose tissue insulin sensitivity index (ATISI).
The study in this example used a prospective, randomized, double-blind placebo-controlled, cross-over design in which eligible subjects were randomized in blocks of six to the initial arm of the study: either placebo or mifepristone (50 mg tablets every 6 hours) for 9 days. This was followed by a 6-8 week washout period. Subjects were then crossed over to the other treatment arm for an additional 9 days. The study was conducted at the National Institutes of Health (NIH) Clinical Center, Bethesda, Md., U.S.
To reduce potential variability associated with estrogen in premenopausal women, testing was performed in the early follicular phase (days 1-7 of menstrual cycle). Baseline height and weight were measured after an overnight fast. […]

[3] = Adverse events and safety laboratory monitoring; details: 50 mg every 6 hours for 9 days
Procedure: All subjects were instructed to record any adverse effects and to report them to study personnel, and women were advised to keep a record of any abnormal menstrual bleeding. For proper safety monitoring, subjects returned approximately one week (day 19) and three weeks (day 33) after the discontinuation of the study drug for both treatment arms. During this safety visit, serum electrolytes, renal and liver function, and complete blood count were measured, as well as evaluation and treatment for potential treatment-related abnormalities/adverse events.

[4] = Plasma hormone levels (testosterone, androstenedione, DHEA sulfate); details: 50 mg every 6 hours for 9 days, mean±SD
Procedure: as §1

[5] = 50 mg every 6 hours for 9 days, all subjects

CC#C[C@]1(O)CC[C@H]2[C@@H]3CCC4=CC(=O)CCC4=C3[C@@H](c3ccc(N(C)C)cc3)C[C@@]21C [Mifepristone, 11beta-[p-(dimethylamino)phenyl]-17alpha-(1-propynl)estra-4,9-dien-17beta-ol-3-one]
ACTH area under the curve (AUC), 24-hour [1, 5]: 574.5 ± 260.8 pg·min/mL | Cortisol area under the curve (AUC), 24-hour [1, 5]: 255.4 ± 61.9 µg·min/dL | Serum cortisol AUC, subjects with higher 24-hr UFC ([1]; mifepristone arm, subgroup with higher 24-hr UFC): 284.9 ± 39.9 µg·min/dL | Serum cortisol AUC, subjects with normal 24-hr UFC ([1]; mifepristone arm, subgroup with normal 24-hr UFC): 229.8 ± 68.5 µg·min/dL | Fasting Glucose ([2]; post-treatment mean±SD): 100.4 ± 15.3 mg/dL | Fasting Insulin ([2]; post-treatment mean±SD): 95.7 ± 76.1 pmol/L and 95.6 ± 76.1 pmol/L | HOMA-IR ([2]; post-treatment mean±SD): 3.58 ± 3.27 | QUICKI ([2]; post-treatment mean±SD): 0.332 ± 0.034 | Adipose-tissue Insulin Resistance Index (Adipo-IR) ([2]; fasting FFA × fasting insulin, mean±SD): 50.0±46.0 mmol×pmol/L | Serious adverse events [3]: No serious adverse events | Androstenedione ([4]; n=16): 110 ± 64.7 ng/dL | DHEA Sulfate ([4]; n=16): 1.04 ± 0.64 µg/mL | Total testosterone (male) ([4]; male subjects): 235.2 ± 87.5 ng/dL
